Source: patent US11351538B2, “Fluidic device and method of assembling same” (Northeastern University, priority 2017, dated 2022)

Test system: primary human intestinal epithelial monolayers
Assay: Paracellular permeability measurement across primary organoid derived monolayers (bi-layer chips vs static inserts)
Assay type: in vitro ADME
Details: apical to basal, 5 days, p-value=0.0029
Procedure: The apparent permeability coefficient for a 4.4 kDa, tetramethylrhodamine (TRITC) labeled dextran (cat no. T1037, Sigma-Aldrich) was determined by measuring transport across the Caco-2 cell monolayer. TEER values of cell monolayers were measured prior to the permeability assay and monolayers with TEER values below 165Ω×cm^2 were not used. For control Transwell cultures, 300 μL of 500 μM dextran in cell culture medium was applied to the apical compartment. 100 μL was immediately sampled from the apical compartment, transferred to a black, polystyrene, 96 well plate and stored in a 4° C. fridge. Transwells were maintained in a humidified, 37° C.+5% CO2 incubator. 100 μL aliquots were sampled from the basolateral compartment every 30 minutes over 3 hours and 100 μL of fresh medium preheated to 37° C. was added to replace the aliquoted volume. The fluorescence intensity of the collected basolateral samples was measured at 557 nm and 576 nm […] wavelengths, respectively. The actual dextran concentration was determined via a calibration curve. The apparent permeability coefficient was calculated as specified. […] The apparent permeability coefficient for Lucifer Yellow (cat no. L0259, Sigma-Aldrich) across primary organoid derived monolayers on static inserts and bi-layer chips was determined as described above. […]

apparent permeability, change between 5-day static and fluidic device models: significant increase
Substance: Lucifer Yellow
